Source: US11472814B2, “Thienopyranones and furanopyranones as checkpoint inhibitors and modulators of anti-tumor immunity” (SignalRx Pharmaceuticals, Inc., priority 2017, dated 2022)
Counter-ions that a name gives are not always drawn. Like-named read-outs stand apart in the source and are kept apart here. Each block holds one compound with its values, some of them ahead of it.

Key:
[1] = test system: Bone marrow derived macrophages (BMDMs), M1 gene expression; assay: M1 marker mRNA in LPS stimulated bone marrow derived macrophages (RT PCR); type: cell-based, murine; settings: control = 1; for Il1 mRNA expression relative to control / Il6 mRNA expression relative to control / Tnfa mRNA expression relative to control: LPS stimulated BMDMs, 24 hours, normalized to GAPDH; for Ifng relative mRNA expression (M1 gene) / Il1 relative mRNA expression (M1 gene) / Il6 relative mRNA expression (M1 gene) / Nos2 relative mRNA expression (M1 gene) / Tnfa relative mRNA expression (M1 gene): Table 8, LPS polarized murine BMDMs
From the text: […] M2 markers Mmr, Ym1, Fizz1 and Mgl mRNA and M1 markers I11, 116 and Tnfa mRNA was quantitated by RT PCR. Values are mean±SEM (n=3-4). Expression of gene of interest is normalized to GAPDH. […] The data provide direct evidence that Compound 1 can block the immunosuppressive macrophage M2 gene expression and activate the M1 gene expression and therefore activate antitumor innate immune cell differentiation in vitro.
(§1) Relative mRNA expression of IL4 or LPS polarized genes in murine bone marrow derived macrophages (BMDMs) treated with various concentrations of inhibitors in vitro. Conclusion: Compound 3 suppressed in vitro macrophage specific immunosuppressive M2 gene expression markers and augmented macrophage stimulatory immune response M1 genes respectively.

[2] = test system: Bone marrow derived macrophages (BMDMs), M2 gene expression; assay: M2 marker mRNA in IL4 stimulated bone marrow derived macrophages (RT PCR); type: cell-based, murine; settings: control = 1; for Arg mRNA expression relative to control / Fizz1 mRNA expression relative to control / Mgl mRNA expression relative to control / Mmr mRNA expression relative to control / Ym1 mRNA expression relative to control: IL4 stimulated BMDMs, 24 hours, normalized to GAPDH; for Arg relative mRNA expression (M2 gene) / Il10 relative mRNA expression (M2 gene) / Mmr relative mRNA expression (M2 gene) / Tgfb relative mRNA expression (M2 gene) / Vegf relative mRNA expression (M2 gene): Table 7, IL4 polarized murine BMDMs
Description: Bone marrow derived macrophages (MOs) (BMDMs) were exposed to IL4 or LPS for 24 hours to stimulate the M2 or M1 macrophage transition in presence of Compound 1 and the known SYK inhibitor Bay-61-3606 at 1 μM conc. M2 markers Mmr, Ym1, Fizz1 and Mgl mRNA and M1 markers I11, 116 and Tnfa mRNA was quantitated by RT PCR. Values are mean±SEM (n=3-4). Expression of gene of interest is normalized to GAPDH. […] The data provide direct evidence that Compound 1 can block the immunosuppressive macrophage M2 gene expression and activate the M1 gene expression and therefore activate antitumor innate immune cell differentiation in vitro.
as §1

[3] = target: T1, PI3K γ (Homo sapiens, UniProt P48736); assay: PI3K gamma inhibition IC50 (Thermo Fisher); type: biochemical; settings: 10-point curve
T1 construct: purchased Thermo Fisher Scientific-Biosciences Life Sciences Solutions, Madison, Wis; (contract assay service)
T1 sequence (P48736 whole entry): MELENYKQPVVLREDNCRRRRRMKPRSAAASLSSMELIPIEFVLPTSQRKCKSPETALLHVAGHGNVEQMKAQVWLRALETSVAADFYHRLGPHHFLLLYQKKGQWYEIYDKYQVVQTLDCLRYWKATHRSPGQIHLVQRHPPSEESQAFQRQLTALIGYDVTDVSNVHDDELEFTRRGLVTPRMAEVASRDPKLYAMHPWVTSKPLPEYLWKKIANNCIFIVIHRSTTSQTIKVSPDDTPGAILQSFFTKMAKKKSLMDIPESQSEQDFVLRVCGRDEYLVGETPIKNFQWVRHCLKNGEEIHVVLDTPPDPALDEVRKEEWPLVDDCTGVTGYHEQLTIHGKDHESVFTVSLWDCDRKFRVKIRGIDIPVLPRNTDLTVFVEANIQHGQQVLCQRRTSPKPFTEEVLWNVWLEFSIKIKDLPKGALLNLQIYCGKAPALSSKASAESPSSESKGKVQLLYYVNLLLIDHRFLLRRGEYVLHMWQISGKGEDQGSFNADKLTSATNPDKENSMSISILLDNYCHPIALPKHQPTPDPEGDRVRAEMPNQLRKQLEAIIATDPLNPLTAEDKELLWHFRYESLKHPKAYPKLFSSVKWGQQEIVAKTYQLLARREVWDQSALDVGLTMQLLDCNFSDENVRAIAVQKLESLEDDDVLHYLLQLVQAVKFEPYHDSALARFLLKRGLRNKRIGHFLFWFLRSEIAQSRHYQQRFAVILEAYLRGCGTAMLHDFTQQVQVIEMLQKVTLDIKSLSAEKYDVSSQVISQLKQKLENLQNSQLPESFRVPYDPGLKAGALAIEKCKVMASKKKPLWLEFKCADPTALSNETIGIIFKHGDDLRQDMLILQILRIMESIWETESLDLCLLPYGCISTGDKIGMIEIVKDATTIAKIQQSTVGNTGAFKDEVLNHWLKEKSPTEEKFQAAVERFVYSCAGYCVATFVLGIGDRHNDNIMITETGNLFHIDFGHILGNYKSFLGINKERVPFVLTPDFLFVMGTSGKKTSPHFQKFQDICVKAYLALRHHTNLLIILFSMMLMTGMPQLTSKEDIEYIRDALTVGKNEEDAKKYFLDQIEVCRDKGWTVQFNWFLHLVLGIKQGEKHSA
From the text: (§2) The inhibitory activity of a compound of the invention against PI3K and/or BRD4 and/or SYK and/or CDK4/6 can be readily determined using methods known to the skilled artisan, or by commercial vendors offering such services. […] In vivo, PI3K inhibition can be determined from target tissue biopsies by standard tissue processing to disrupt cells and then performing Western Blot analysis to determine the presence or absence of pAKT (substrate of PI3K) relative to a control sample. The activity of a compound of the invention as an inhibitor of a bromodomain-containing protein, such as a BET protein, such as BRD2, BRD3, BRD4, and/or BRDT, or an isoform or mutant thereof, may be determined in vitro, in vivo, or in a cell line. In vitro assays include assays that determine inhibition of bromodomain-containing proteins. Alternatively, inhibitor binding may be determined by running a competition experiment where a provided compound is incubated with a bromodomain-containing protein, such as a BET protein bound to known ligands, labeled or unlabeled. For example, bromodomain inhibition can be determined in vitro using Alpha Screen Technology (http://www.reactionbiologv.com/webapps/site/NewsPDFs/Bromodomain%20Assay %20Platform %20for %20Drug %20Screening %20and %20Discovery.pdf). In vivo bromodomain inhibition can be determined indirectly by evaluating the amount of protein present of proteins whose genes' transcription is influenced or controlled by the bromodomain protein, for example, the MYCN protein transcription is controlled by BRD4 (J. E. Delmore et al., Cell 2011, 146, 904-917; A. Puissant, Cancer Discov. 2013, 3, 308-323). Bromodomain inhibition may also be predicted by in silico modeling as described below in the Examples. Additionally, the company Promega offers a SYK luminescent assay to determine a compound's ability to inhibit the SYK protein (https://www.promega.com/-/media/files/resources/protocols/kinase-enzyme-appnotes/syk-kinase-assay-protocol.pdf?la=en).
(§3) Compounds of the invention were characterized for their ability to inhibit target proteins using third party vendors offering such services. PI3K alpha, gamma, and delta inhibition activity was determined by Thermo Fisher Scientific-Biosciences Life Sciences Solutions, Madison, Wis. The bromodomain protein inhibition (binding domain 1 and 2 of BRD4) as well as SYK inhibition was determined at Reaction Biology Corp., Malvern, Pa. […] The IC50 data (shown below in Table 5) was calculated from a 10-point curve and is expressed in nanomolar concentration (nM) rounded off to the nearest whole number. […]

[4] = target: T2, BRD4-1 (Homo sapiens, UniProt O60885); assay: Bromodomain protein inhibition IC50, binding domain 1 of BRD4 (Reaction Biology Corp.); settings: 10-point curve
T2 construct: purchased Reaction Biology Corp., Malvern, Pa; (contract assay service)
From the text: as §2, §3

[5] = target: T3, SYK (Homo sapiens, UniProt P43405); assay: SYK inhibition IC50 (Reaction Biology Corp.); type: biochemical
T3 construct: purchased Reaction Biology Corp., Malvern, Pa; (contract assay service)
From the text: as §2
Compounds of the invention were characterized for their ability to inhibit target proteins using third party vendors offering such services. PI3K alpha, gamma, and delta inhibition activity was determined by Thermo Fisher Scientific-Biosciences Life Sciences Solutions, Madison, Wis. The bromodomain protein inhibition (binding domain 1 and 2 of BRD4) as well as SYK inhibition was determined at Reaction Biology Corp., Malvern, Pa. Additional information on each of the assays performed and services provided is available at each company's website on the internet (https://www.thermofisher.com/us/en/home/life-science.html and http://www.reactionbiology.com/webapps/site, respectively). The IC50 data (shown below in Table 5) was calculated from a 10-point curve and is expressed in nanomolar concentration (nM) rounded off to the nearest whole number. Where multiple values were obtained the range from lowest to highest values is presented. NI=no inhibition detected up to 50 uM or IC50 not reached at 50 uM.

[6] = target: T4, BRD4-2 (Homo sapiens, UniProt O60885); assay: Bromodomain protein inhibition IC50, binding domain 2 of BRD4 (Reaction Biology Corp.); settings: 10-point curve
T4 construct: purchased Reaction Biology Corp., Malvern, Pa; (contract assay service)
From the text: as §2, §3

[7] = target: T5, PI3K α (Homo sapiens, UniProt P42336); assay: PI3K alpha inhibition IC50 (Thermo Fisher); type: biochemical; settings: 10-point curve
T5 construct: purchased Thermo Fisher Scientific-Biosciences Life Sciences Solutions, Madison, Wis; (contract assay service)
T5 sequence (P42336 whole entry): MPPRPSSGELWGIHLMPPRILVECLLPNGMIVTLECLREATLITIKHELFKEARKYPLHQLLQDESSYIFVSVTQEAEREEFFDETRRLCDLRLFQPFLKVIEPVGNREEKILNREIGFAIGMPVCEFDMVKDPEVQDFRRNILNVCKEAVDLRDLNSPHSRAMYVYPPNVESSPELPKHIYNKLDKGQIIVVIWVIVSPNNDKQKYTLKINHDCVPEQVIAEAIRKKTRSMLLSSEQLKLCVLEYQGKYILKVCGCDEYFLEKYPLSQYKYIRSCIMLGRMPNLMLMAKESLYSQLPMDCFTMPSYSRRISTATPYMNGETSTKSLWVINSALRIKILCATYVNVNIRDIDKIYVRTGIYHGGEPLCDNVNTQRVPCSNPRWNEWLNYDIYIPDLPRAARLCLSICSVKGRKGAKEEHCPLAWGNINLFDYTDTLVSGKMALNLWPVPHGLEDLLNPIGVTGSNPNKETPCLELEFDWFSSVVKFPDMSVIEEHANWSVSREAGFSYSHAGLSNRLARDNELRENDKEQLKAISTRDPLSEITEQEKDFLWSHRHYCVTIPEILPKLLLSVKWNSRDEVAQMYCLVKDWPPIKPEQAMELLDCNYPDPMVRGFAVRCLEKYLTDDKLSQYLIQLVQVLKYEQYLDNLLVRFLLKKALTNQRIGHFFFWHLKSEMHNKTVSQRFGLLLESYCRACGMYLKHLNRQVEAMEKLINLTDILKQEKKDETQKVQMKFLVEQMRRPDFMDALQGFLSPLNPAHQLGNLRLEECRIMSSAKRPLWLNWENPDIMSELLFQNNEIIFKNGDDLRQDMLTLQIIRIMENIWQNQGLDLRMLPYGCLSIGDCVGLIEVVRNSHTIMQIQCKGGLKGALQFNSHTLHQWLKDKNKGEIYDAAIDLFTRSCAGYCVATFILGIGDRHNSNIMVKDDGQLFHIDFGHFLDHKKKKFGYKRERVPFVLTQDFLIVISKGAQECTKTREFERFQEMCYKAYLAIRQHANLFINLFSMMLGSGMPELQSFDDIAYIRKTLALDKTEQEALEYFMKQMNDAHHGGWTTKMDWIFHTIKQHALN
T5 sequence (P27986 whole entry partner): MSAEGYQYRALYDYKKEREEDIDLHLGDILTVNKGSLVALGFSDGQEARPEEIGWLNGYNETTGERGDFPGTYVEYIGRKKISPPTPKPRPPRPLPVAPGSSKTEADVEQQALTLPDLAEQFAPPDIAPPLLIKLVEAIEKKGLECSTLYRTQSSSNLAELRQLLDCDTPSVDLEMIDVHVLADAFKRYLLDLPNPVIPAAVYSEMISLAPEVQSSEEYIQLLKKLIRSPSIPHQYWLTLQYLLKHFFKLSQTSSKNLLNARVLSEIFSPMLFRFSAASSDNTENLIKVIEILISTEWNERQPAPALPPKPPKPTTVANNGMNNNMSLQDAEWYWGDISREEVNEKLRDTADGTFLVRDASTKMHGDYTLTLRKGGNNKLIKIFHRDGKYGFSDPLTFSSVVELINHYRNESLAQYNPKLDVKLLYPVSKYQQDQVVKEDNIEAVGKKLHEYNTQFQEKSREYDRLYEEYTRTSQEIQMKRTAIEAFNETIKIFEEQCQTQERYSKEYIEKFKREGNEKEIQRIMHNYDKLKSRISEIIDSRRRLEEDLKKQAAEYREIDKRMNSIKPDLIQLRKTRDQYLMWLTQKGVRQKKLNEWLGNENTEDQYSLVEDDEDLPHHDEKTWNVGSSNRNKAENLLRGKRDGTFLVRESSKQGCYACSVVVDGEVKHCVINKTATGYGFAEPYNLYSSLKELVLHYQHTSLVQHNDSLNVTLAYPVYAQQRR
From the text: as §2, §3

[8] = 10-point curve, read-out: SYK IC50

Compound: COc1ccc(-c2cc3nccn3c(Nc3ncccc3C(N)=O)n2)cc1OC [Bay 61-3606, Bay-61-3606, reference compound]
Il1 mRNA expression relative to control ([1]; 500 nM): 0.66
Il6 mRNA expression relative to control ([1]; 500 nM): 0.79
Tnfa mRNA expression relative to control ([1]; 500 nM): 0.88
Il1 mRNA expression relative to control ([1]; 1 μM): 0.22
Il6 mRNA expression relative to control ([1]; 1 μM): 0.31
Tnfa mRNA expression relative to control ([1]; 1 μM): 0.69
Il1 mRNA expression relative to control ([1]; 5 μM): 0.11
Il6 mRNA expression relative to control ([1]; 5 μM): 1.63
Tnfa mRNA expression relative to control ([1]; 5 μM): 2.25
Arg mRNA expression relative to control ([2]; 500 nM): 0.35
Fizz1 mRNA expression relative to control ([2]; 500 nM): 0.05
Mgl mRNA expression relative to control ([2]; 500 nM): 0.33
Mmr mRNA expression relative to control ([2]; 500 nM): 0.12
Ym1 mRNA expression relative to control ([2]; 500 nM): 0.07
Arg mRNA expression relative to control ([2]; 1 μM): 0.33
Fizz1 mRNA expression relative to control ([2]; 1 μM): 0.005
Mgl mRNA expression relative to control ([2]; 1 μM): 0.34
Mmr mRNA expression relative to control ([2]; 1 μM): 0.12
Ym1 mRNA expression relative to control ([2]; 1 μM): 0.07
Arg mRNA expression relative to control ([2]; 5 μM): 0.06
Fizz1 mRNA expression relative to control ([2]; 5 μM): 0.0013
Mgl mRNA expression relative to control ([2]; 5 μM): 0.36
Mmr mRNA expression relative to control ([2]; 5 μM): 0.15
Ym1 mRNA expression relative to control ([2]; 5 μM): 0.04

Compound: Cc1nn(-c2ccnc(Nc3ccc(-c4csc5c(=O)cc(N6CCNCC6)oc45)cc3)n2)cc1CN1CCC1 [Compound 4, 3-[p-(4-{4-[(1-Azetidinyl)methyl]-3-methyl-1H-pyrazol-1-yl}-2-pyrimidinylamino)phenyl]-5-(1-piperazinyl)-4-oxa-1-thia-7-indenone dihydrochloride]
IC50 [3]: > 50 µM
IC50 [4]: 5 to 50 µM
IC50 [5, 8]: 0.1 to 1 µM
IC50 [6]: > 50 µM
IC50 [7]: 5 to 50 µM

Compound: COc1cc(Nc2ncc(F)c(Nc3ccc4c(n3)N(COP(=O)(O)O)C(=O)C(C)(C)O4)n2)cc(OC)c1OC [Compound R788, fostamatinib, reference compound]
Ifng relative mRNA expression (M1 gene) ([1]; 500 nM): 3.2 ± 0.09
Il1 relative mRNA expression (M1 gene) ([1]; 500 nM): 1.4 ± 0.003
Il6 relative mRNA expression (M1 gene) ([1]; 500 nM): 1.8 ± 0.05
Nos2 relative mRNA expression (M1 gene) ([1]; 500 nM): 0.6 ± 0.014
Tnfa relative mRNA expression (M1 gene) ([1]; 500 nM): 1.4 ± 0.13
Arg relative mRNA expression (M2 gene) ([2]; 500 nM): 0.352 ± 0.07
Il10 relative mRNA expression (M2 gene) ([2]; 500 nM): 0.35 ± 0.026
Mmr relative mRNA expression (M2 gene) ([2]; 500 nM): 0.31 ± 031
Tgfb relative mRNA expression (M2 gene) ([2]; 500 nM): 0.771 ± .007
Vegf relative mRNA expression (M2 gene) ([2]; 500 nM): 0.58 ± 0.065

Compound: C[C@H](NC(=O)c1c(N)nn2cccnc12)c1cc2cccc(C#Cc3cnn(C)c3)c2c(=O)n1-c1ccccc1 [IPI549, reference compound]
Ifng relative mRNA expression (M1 gene) ([1]; 500 nM): 1.9 ± 0.249
Il1 relative mRNA expression (M1 gene) ([1]; 500 nM): 3.9 ± 0.003
Il6 relative mRNA expression (M1 gene) ([1]; 500 nM): 1.8 ± 0.05
Nos2 relative mRNA expression (M1 gene) ([1]; 500 nM): 0.83 ± .04
Tnfa relative mRNA expression (M1 gene) ([1]; 500 nM): 0.984 ± .16
Arg relative mRNA expression (M2 gene) ([2]; 500 nM): 0.62 ± 0.08
Il10 relative mRNA expression (M2 gene) ([2]; 500 nM): 0.081 ± .002
Mmr relative mRNA expression (M2 gene) ([2]; 500 nM): 0.324 ± 0.049
Tgfb relative mRNA expression (M2 gene) ([2]; 500 nM): 0.568 ± 0.05
Vegf relative mRNA expression (M2 gene) ([2]; 500 nM): 0.374 ± .132

The next lines start with the values.

IC50 ([5]; note to Table 5, read-out: SYK inhibition IC50): > 50 µM
Compound: O=c1cc(N2CCOCC2)oc2c(-c3ccc4c(c3)OCCO4)csc12 [Compound 0]

IC50 [3]: > 50 µM
IC50 [4]: 5 to 50 µM
IC50 [5, 8]: < 0.1 µM
IC50 [6]: > 50 µM
IC50 [7]: 1 to 5 µM
Compound: Cc1nn(-c2ccnc(Nc3ccc(-c4csc5c(=O)cc(N6CCNCC6)oc45)cc3)n2)cc1CN1CC(O)C1 [Compound 2, 3-[p-(4-{4-[(3-Hydroxy-1-azetidinyl)methyl]-3-methyl-1H-pyrazol-1-yl}-2-pyrimidinylamino)phenyl]-5-(1-piperazinyl)-4-oxa-1-thia-7-indenone dihydrochloride]
